Data reported in publication PMC5341695 (Biochemical pharmacology, 2016).
Values joined by “and” are separate entries in the source; they are usually repeats but may differ in a detail not shown here. Identical values can stand only once. Like-named read-outs stand apart in the source and are kept apart here. Each block holds one compound with its values, some of them ahead of it.

Tests used:
[1] = target: T1, mouse Pgp reconstituted in liposomes (Mus musculus, UniProt P21447); settings: 3.2 mM (saturating) AMPPNP, no verapamil
[2] = target: mouse Pgp reconstituted into liposomes (Mus musculus, UniProt P21447)
[3] = target: T1, mouse Pgp reconstituted in liposomes; experiment: AMPPNP-induced quenching of Pgp intrinsic tryptophan fluorescence
[4] = target: wild-type his-tagged mouse Pgp transporter reconstituted into liposomes (Mus musculus, UniProt P21447); experiment: Pgp-coupled ATPase activity
[5] = 3.2 mM AMPPNP, 1 µM Pgp, no verapamil

Structure (SMILES): Nc1ncnc2c1ncn2[C@@H]1O[C@H](COP(=O)([O-])OP(=O)([O-])NP(=O)([O-])[O-])[C@@H](O)[C@H]1O.[Li+].[Li+].[Li+].[Li+] [AMPPNP, Adenosine 5’-(β,γ-imido)triphosphate lithium salt]
KSV acrylamide quenching [1]: 0.97 ± 0.16 M⁻¹
decrease of average STDD amplification factor of AMPPNP ([2]; 3.2 mM AMPPNP and 8 µM verapamil): 15%
increase of average STDD amplification factors of AMPPNP ([2]; 3.2 mM AMPPNP and 1 mM verapamil): more than 20%
average STDD amplification factor for AMPPNP [2, 5]: 63 ± 51
average STDD amplification factor, purine base [2, 5]: 79 ± 64
average STDD amplification factor, ribose sugar [2, 5]: 40 ± 11
K1 (low concentration phase) ([3]; 37 °C, data not shown): 8 µM⁻¹
K2 (high concentration phase) ([3]; 37 °C, data not shown): 0.017 µM⁻¹
K1 (low concentration phase, dynamic quenching) ([3]; fit to equation 6): 6.66 +/− 3.41 µM ^−1
K2 (high concentration phase, static quenching) ([3]; fit to equation 6): 0.022 +/− 0.006 µM ^−1
fraction quenched, high concentration phase (FH/F0) ([3]; fit to equation 6): 0.074
fraction quenched, low concentration phase (FL/F0) ([3]; fit to equation 6): 0.16
Kd ([3]; read-out: KD of AMPPNP for Pgp, from high concentration (static) quenching phase): 45 µM
decrease of Pgp tryptophan fluorescence ([3]; saturating AMPPNP concentration, 1 µM Pgp): about 15%

Structure (SMILES): Nc1ncnc2c1ncn2[C@@H]1O[C@H](COP(=O)(O)OP(=O)([O-])OP(=O)([O-])O)[C@@H](O)[C@H]1O.[Na+].[Na+] [ATP, Disodium ATP]
VMAX basal Pgp ATPase activity ([4]; ATP titration in the absence of verapamil, Equation 1): 619 ± 18 nmol/min/mg
increase of ATP affinity in the presence of two bound verapamil molecules ([4]; COPASI fit, KD5 versus KD3, saturating verapamil): ~ 4 fold and 4 fold
Vmax0 (basal ATPase activity, E-ATP) ([4]; COPASI fit, average over […]-3.2 mM ATP): 672 ± 93 nmol/min/mg
VMAX of Pgp-coupled ATPase with ATP alone (discussion) ([4]; no verapamil): 500 to 700 nmol/min/mg
Kd ([4]; read-out: KD4 (ATP to EV, one bound verapamil), COPASI fit, 0.5 mM ATP data set): 1.49 mM
Kd ([4]; read-out: KD4 (ATP to EV, one bound verapamil), COPASI fit, 1 mM ATP data set): 1.34 mM
Kd ([4]; read-out: KD4 (ATP to EV, one bound verapamil), COPASI fit, 2 mM ATP data set): 1.03 mM
Kd ([4]; read-out: KD4 (ATP to EV, one bound verapamil), COPASI fit, 3.2 mM ATP data set): 1 mM
Kd ([4]; read-out: KD4 (ATP to EV, one bound verapamil), COPASI fit, […] ATP data set): 1.35 mM
Kd ([4]; read-out: KD5 (ATP to EVV, two bound verapamil), COPASI fit, 3.2 mM ATP data set): 0.21 mM
Km ([4]; read-out: Km for ATP in the presence of Na3VO4, 200 µM Na3VO4, range of ATP concentrations, Equation 1): 906 ± 476 µM

mode of inhibition of Pgp-mediated ATP hydrolysis ([4]; 200 µM): non-competitive inhibitor
VMAX Pgp ATPase activity in the presence of Na3VO4 ([4]; 200 µM Na3VO4, range of ATP concentrations, Equation 1): 172 ± 24 nmol/min/mg
Na3VO4 sensitive VMAX for Pgp ([4]; difference in VMAX without and with 200 µM Na3VO4): 447 ± 30 nmol/min/mg
Structure (SMILES): [Na+].[Na+].[Na+].[O]=[V]([O-])([O-])[O-] [Na3VO4, sodium orthovanadate]
